Where no end group is shown, it is not given here.
Columns and labels:
[1] = test system: low grade prostate cancer (Gleason grade 6); assay: Clinical study, Example 4: hemi-prostate multifocal cancer with increase in Gleason primary pattern; assay type: in vivo, human; conditions: for % Imp.: hemi-prostate multifocal cancer with increase in Gleason primary pattern: vs control active surveillance
Method: (§1) In a series of clinical studies a total of 146 men with low grade prostate cancer (Gleason grade 6) were treated in the following manner. Patients were randomized and treated with a transrectal intraprostatic single injection of a composition comprising 2.5 mg FT (n=49), or a composition comprising 15 mg FT (n=48), or were subject to control active surveillance (n=49). After the first follow-up biopsy at 45 days post-randomization, 18 patients in the control active surveillance group crossed over to a single administration of a composition in which 10 patients received 2.5 mg FT, and 8 patients received 15 mg FT. Patients were followed for 5 years including biopsies at baseline, 45 days, 18, 36, and 48 months, and urological evaluations with PSA every 6 months. Patients with Gleason grade increase or who elected surgical or radiotherapeutic intervention exited the study and were still included in the data analysis. Percentage of normal biopsies in the baseline focus quadrant and median tumor grade and volume were assessed; progression was measured by clinical and pathological outcomes including Gleason grade, and Gleason grade primary pattern, in the entire prostate sampled as well as for the treated prostate lobe. Interventions associated with Gleason grade increase as well as total incidence for any conventional surgical intervention (e.g., surgery, radiotherapy, and/or chemotherapy) was assessed.

[2] = test system: low grade prostate cancer (Gleason grade 6); assay: Clinical study, Example 1: new multifocal with Gleason upgrade in entire prostate; assay type: in vivo, human; conditions: for % Imp.: new multifocal with Gleason upgrade, entire prostate: vs control active surveillance
Method: as §1

[3] = test system: prostate glandular epithelial cells; assay: In vitro tissue culture genetic array and cell effects; assay type: cell-based
Excerpt: Use of FT is a preferred embodiment. FT is a new molecular entity which in vitro stimulates caspase pathways (activation of caspases 7, 8, and 10, caspase recruitment domains 6, 11, and 14, and DIABLO), tumor necrosis factor pathways (activation of TNF1, TNFSF6, TNFSF8, TNFSF9, CD70 ligands, and TNFRSF19L, TNFRSF25, TRAF2, TRAF3, TRAF4, TRAF6 receptors), and BCL pathways (activation of BIK, HRK, BCL2L10 and BCL3) in prostate glandular epithelial cells, based on tissue culture genetic array data. […] The apoptotic process leads to typical ultrastructural progressive changes of membranous disruption and swelling, progressively deepening nuclear invaginations with eventual membranous bleb formations and cell death and fragmentation into apoptotic bodies.

[4] = test system: low grade prostate cancer (Gleason grade 6); assay: Clinical study, Example 6: cancer treatment with new multifocal and an increase in Gleason grade primary pattern; assay type: in vivo, human; conditions: for % Imp.: cancer treatment with new multifocal and an increase in Gleason grade primary pattern, entire prostate: vs control active surveillance
Method: as §1

[5] = test system: low grade prostate cancer (Gleason grade 6); assay: Clinical study, Example 7: cancer treatment with new multifocal with increased Gleason grade in the hemi-prostate; assay type: in vivo, human; conditions: for % Imp.: cancer treatment with new multifocal with increased Gleason grade in the hemi-prostate: vs control active surveillance
Method: as §1, with “assessed. This example evaluated the percentage of patients who had conventional cancer treatment (e.g., surgery, radiotherapy, and/or chemotherapy), and who and who had multifocal prostate cancer in the lobe (or hemi-prostate) in which the foci were initially treated with Gleason upgrade (cancer treatment with new multifocal with increased Gleason grade in the hemi-prostate).” for “assessed.”

[6] = FT 2.5 mg, <=18 mos from treatment
[7] = FT 2.5 mg, <=36 mos from treatment
[8] = FT 2.5 mg, <=48 mos from treatment
[9] = FT 15 mg, <=18 mos from treatment
[10] = FT 15 mg, <=36 mos from treatment
[11] = FT 15 mg, <=48 mos from treatment
[12] = Pooled FT (2.5 mg and 15 mg), <=18 mos from treatment
[13] = Pooled FT (2.5 mg and 15 mg), <=18 mos
[14] = Pooled FT (2.5 mg and 15 mg), <=36 mos from treatment
[15] = Pooled FT (2.5 mg and 15 mg), <=36 mos
[16] = Pooled FT (2.5 mg and 15 mg), <=48 mos from treatment
[17] = Pooled FT (2.5 mg and 15 mg), <=48 mos
[18] = in vitro, tissue culture genetic array data

fexapotide triflutate (IDQQVLSRIKLEIKRCL; also: trifluoroacetate salt) [FT]
percentage of patients: hemi-prostate multifocal cancer with increase in Gleason primary pattern [1, 6]: 0 (p = 0.033) % | % Imp.: hemi-prostate multifocal cancer with increase in Gleason primary pattern ([1]; FT 2.5 mg, <=18 mos): 100% | percentage of patients: hemi-prostate multifocal cancer with increase in Gleason primary pattern [1, 7]: 0 (p = 0.018) % | % Imp.: hemi-prostate multifocal cancer with increase in Gleason primary pattern ([1]; FT 2.5 mg, <=36 mos): 100% | percentage of patients: hemi-prostate multifocal cancer with increase in Gleason primary pattern [1, 8]: 0 (p = 0.037) % | % Imp.: hemi-prostate multifocal cancer with increase in Gleason primary pattern ([1]; FT 2.5 mg, <=48 mos): 100% | percentage of patients: hemi-prostate multifocal cancer with increase in Gleason primary pattern [1, 9]: 2.9% | % Imp.: hemi-prostate multifocal cancer with increase in Gleason primary pattern ([1]; FT 15 mg, <=18 mos): 76.8% | percentage of patients: hemi-prostate multifocal cancer with increase in Gleason primary pattern [1, 10]: 4.5% | % Imp.: hemi-prostate multifocal cancer with increase in Gleason primary pattern ([1]; FT 15 mg, <=36 mos): 79% | percentage of patients: hemi-prostate multifocal cancer with increase in Gleason primary pattern [1, 11]: 6.7% | % Imp.: hemi-prostate multifocal cancer with increase in Gleason primary pattern ([1]; FT 15 mg, <=48 mos): 75.5% | percentage of patients: hemi-prostate multifocal cancer with increase in Gleason primary pattern [1, 12]: 1.4 (p = 0.03) % | % Imp.: hemi-prostate multifocal cancer with increase in Gleason primary pattern [1, 13]: 88.8% | percentage of patients: hemi-prostate multifocal cancer with increase in Gleason primary pattern [1, 14]: 2.2 (p = 0.011) % | % Imp.: hemi-prostate multifocal cancer with increase in Gleason primary pattern [1, 15]: 89.7% | percentage of patients: hemi-prostate multifocal cancer with increase in Gleason primary pattern [1, 16]: 3.4 (p = 0.025) % | % Imp.: hemi-prostate multifocal cancer with increase in Gleason primary pattern [1, 17]: 87.5% | percentage of patients: new multifocal with Gleason upgrade, entire prostate [2, 6]: 13.5% | % Imp.: new multifocal with Gleason upgrade, entire prostate ([2]; FT 2.5 mg, <=18 mos): 51.4% | percentage of patients: new multifocal with Gleason upgrade, entire prostate [2, 7]: 23.1% | % Imp.: new multifocal with Gleason upgrade, entire prostate ([2]; FT 2.5 mg, <=36 mos): 47.2% | percentage of patients: new multifocal with Gleason upgrade, entire prostate [2, 8]: 50% | % Imp.: new multifocal with Gleason upgrade, entire prostate ([2]; FT 2.5 mg, <=48 mos): 12.4% | percentage of patients: new multifocal with Gleason upgrade, entire prostate [2, 9]: 5.7 (p = 0.025) % | % Imp.: new multifocal with Gleason upgrade, entire prostate ([2]; FT 15 mg, <=18 mos): 79.5% | percentage of patients: new multifocal with Gleason upgrade, entire prostate [2, 10]: 9.1 (p = 0.13) % | % Imp.: new multifocal with Gleason upgrade, entire prostate ([2]; FT 15 mg, <=36 mos): 79.2% | percentage of patients: new multifocal with Gleason upgrade, entire prostate [2, 11]: 20 (p = 0.039) % | % Imp.: new multifocal with Gleason upgrade, entire prostate ([2]; FT 15 mg, <=48 mos): 65% | percentage of patients: new multifocal with Gleason upgrade, entire prostate [2, 12]: 9.7 (p = 0.044) % | % Imp.: new multifocal with Gleason upgrade, entire prostate [2, 13]: 65.1% | percentage of patients: new multifocal with Gleason upgrade, entire prostate [2, 14]: 16.7 (P = 0.027) % | % Imp.: new multifocal with Gleason upgrade, entire prostate [2, 15]: 61.9% | percentage of patients: new multifocal with Gleason upgrade, entire prostate [2, 16]: 35.5% | % Imp.: new multifocal with Gleason upgrade, entire prostate [2, 17]: 37.8% | cellular effects [3]: selectively causes loss of cell membrane integrity, mitochondrial metabolic arrest, depletion of RNA, DNA lysis and aggregation, and cell fragmentation and cell loss | BCL pathways (activation of BIK, HRK, BCL2L10 and BCL3) [3, 18]: stimulates | caspase pathways (activation of caspases 7, 8, and 10, caspase recruitment domains 6, 11, and 14, and DIABLO) [3, 18]: stimulates | tumor necrosis factor pathways (activation of TNF1, TNFSF6, TNFSF8, TNFSF9, CD70 ligands, and TNFRSF19L, TNFRSF25, TRAF2, TRAF3, TRAF4, TRAF6 receptors) [3, 18]: stimulates | percentage of patients: cancer treatment with new multifocal and an increase in Gleason grade primary pattern, entire prostate [4, 6]: 0 (p = 0.001) % | % Imp.: cancer treatment with new multifocal and an increase in Gleason grade primary pattern, entire prostate ([4]; FT 2.5 mg, <=18 mos): 100% | percentage of patients: cancer treatment with new multifocal and an increase in Gleason grade primary pattern, entire prostate [4, 7]: 0 (p = 0.006) % | % Imp.: cancer treatment with new multifocal and an increase in Gleason grade primary pattern, entire prostate ([4]; FT 2.5 mg, <=36 mos): 100% | percentage of patients: cancer treatment with new multifocal and an increase in Gleason grade primary pattern, entire prostate [4, 8]: 0 (p = 0.0040) % | % Imp.: cancer treatment with new multifocal and an increase in Gleason grade primary pattern, entire prostate ([4]; FT 2.5 mg, <=48 mos): 100% | percentage of patients: cancer treatment with new multifocal and an increase in Gleason grade primary pattern, entire prostate [4, 9]: 2.6 (p = 0.06) % | % Imp.: cancer treatment with new multifocal and an increase in Gleason grade primary pattern, entire prostate ([4]; FT 15 mg, <=18 mos): 83.5% | percentage of patients: cancer treatment with new multifocal and an increase in Gleason grade primary pattern, entire prostate [4, 10]: 3.6 (p = 0.04) % | % Imp.: cancer treatment with new multifocal and an increase in Gleason grade primary pattern, entire prostate ([4]; FT 15 mg, <=36 mos): 84.7% | percentage of patients: cancer treatment with new multifocal and an increase in Gleason grade primary pattern, entire prostate [4, 11]: 4.2 (p = 0.019) % | % Imp.: cancer treatment with new multifocal and an increase in Gleason grade primary pattern, entire prostate ([4]; FT 15 mg, <=48 mos): 86.6% | percentage of patients: cancer treatment with new multifocal and an increase in Gleason grade primary pattern, entire prostate [4, 12]: 1.3 (p = 0.04) % | % Imp.: cancer treatment with new multifocal and an increase in Gleason grade primary pattern, entire prostate [4, 13]: 91.8% | percentage of patients: cancer treatment with new multifocal and an increase in Gleason grade primary pattern, entire prostate [4, 14]: 1.7 (p = 0.002) % | % Imp.: cancer treatment with new multifocal and an increase in Gleason grade primary pattern, entire prostate [4, 15]: 92.8% | percentage of patients: cancer treatment with new multifocal and an increase in Gleason grade primary pattern, entire prostate [4, 16]: 2.1 (p = 0.001) % | % Imp.: cancer treatment with new multifocal and an increase in Gleason grade primary pattern, entire prostate [4, 17]: 93.3% | percentage of patients: cancer treatment with new multifocal with increased Gleason grade in the hemi-prostate [5, 6]: 4.9% | % Imp.: cancer treatment with new multifocal with increased Gleason grade in the hemi-prostate ([5]; FT 2.5 mg, <=18 mos): 69% | percentage of patients: cancer treatment with new multifocal with increased Gleason grade in the hemi-prostate [5, 7]: 10% | % Imp.: cancer treatment with new multifocal with increased Gleason grade in the hemi-prostate ([5]; FT 2.5 mg, <=36 mos): 57.4% | percentage of patients: cancer treatment with new multifocal with increased Gleason grade in the hemi-prostate [5, 8]: 17.4% | % Imp.: cancer treatment with new multifocal with increased Gleason grade in the hemi-prostate ([5]; FT 2.5 mg, <=48 mos): 44.4% | percentage of patients: cancer treatment with new multifocal with increased Gleason grade in the hemi-prostate [5, 9]: 5.1% | % Imp.: cancer treatment with new multifocal with increased Gleason grade in the hemi-prostate ([5]; FT 15 mg, <=18 mos): 67.7% | percentage of patients: cancer treatment with new multifocal with increased Gleason grade in the hemi-prostate [5, 10]: 7.1% | % Imp.: cancer treatment with new multifocal with increased Gleason grade in the hemi-prostate ([5]; FT 15 mg, <=36 mos): 69.8% | percentage of patients: cancer treatment with new multifocal with increased Gleason grade in the hemi-prostate [5, 11]: 8.3% | % Imp.: cancer treatment with new multifocal with increased Gleason grade in the hemi-prostate ([5]; FT 15 mg, <=48 mos): 73.5% | percentage of patients: cancer treatment with new multifocal with increased Gleason grade in the hemi-prostate [5, 12]: 5% | % Imp.: cancer treatment with new multifocal with increased Gleason grade in the hemi-prostate [5, 13]: 68.4% | percentage of patients: cancer treatment with new multifocal with increased Gleason grade in the hemi-prostate [5, 14]: 8.6% | % Imp.: cancer treatment with new multifocal with increased Gleason grade in the hemi-prostate [5, 15]: 63.4% | percentage of patients: cancer treatment with new multifocal with increased Gleason grade in the hemi-prostate [5, 16]: 12.8% | % Imp.: cancer treatment with new multifocal with increased Gleason grade in the hemi-prostate [5, 17]: 59.1%

From patent publication US11231421B2, “Methods of treating multifocal cancer” (NYMOX CORPORATION, priority 2019, dated 2022)
